Active and inactive are the calls of the source. The rule behind the calls is not given here.
Key:
HT-22 [1] = experiment: Cytotoxicity against mouse HT-22 cells assessed as reduction in cell viability at 30 uM incubated for 24 hrs by MTT assay; type: toxicity, cell-based; details: ht-22, 24 h
HT-22 [2] = experiment: Inhibition of RSL3-induced ferroptosis in mouse HT-22 cells assessed as increase in cell viability at 30 uM incubated for 24 hrs by MTT assay; type: functional, cell-based
BV-2 [3] = experiment: Anti-inflammatory activity in mouse BV-2 cells assessed as inhibition of LPS-induced NO accumulation measured after 24 hrs by Griess reagent-based analysis; type: functional, cell-based; details: BV-2, 24 h
[4] = Metal chelating activity assessed as Fe2+-compound complex formation at 50 mM in presence of FeSO4 by UV-Visible spectrophotometry
BV-2 [5] = experiment: Cytotoxicity against mouse BV-2 cells assessed as reduction in cell viability at 10 to 30 uM incubated for 24 hrs by MTT assay; type: toxicity, cell-based; details: bv-2, 24 h, dose 10-30 µM
HT-22 [6] = experiment: Inhibition of RSL3-induced ferroptosis in mouse HT-22 cells assessed as increase in cell viability incubated for 24 hrs by MTT assay; type: functional, cell-based; details: HT-22, 24 h
HT-22 [7] = experiment: Inhibition of H2O2-induced necrosis in mouse HT-22 cells at 30 uM incubated for 24 hrs; type: functional, cell-based
HT-22 [8] = experiment: Inhibition of STS-induced apoptosis in mouse HT-22 cells at 30 uM incubated for 24 hrs; type: functional, cell-based
HT-22 [9] = experiment: Inhibition of TNFalpha/AZD5582/Z-VAD-fmk induced necroptosis in mouse HT-22 cells at 30 uM incubated for 24 hrs; type: functional, cell-based
HT-22 [10] = experiment: Inhibition of RSL3-induced ferroptosis in mouse HT-22 cells assessed as reduction in lipid accumulation incubated for 4 hrs by BODIPY-C11 based flow cytometric analysis; type: functional, cell-based; details: dose 3-30 µM
HT-22 [11] = experiment: Inhibition of RSL3-induced ferroptosis in mouse HT-22 cells assessed as reduction in cytosolic ROS accumulation incubated for 4 hrs by carboxy-H2DCFDA based flow cytometric analysis; type: functional, cell-based; details: dose 3-30 µM
[12] = Antioxidant activity assessed as DPPH radical scavenging activity at 100 uM measured after 30 mins by microplate spectrophotometer analysis; type: functional
HT-22 [13] = experiment: Inhibition of RSL3-induced ferroptosis in mouse HT-22 cells assessed as downregulation of PTGS2 mRNA expression at 10 to 30 uM incubated for 4 hrs by qRT-PCR analysis; type: functional, cell-based; details: dose 10-30 µM
HT-22 [14] = experiment: Inhibition of glutamate-induced ferroptosis in mouse HT-22 cells at 30 uM incubated for 24 hrs; type: functional, cell-based
HT-22 [15] = experiment: Reversal of RSL3-induced morphological changes in mouse HT-22 cells incubated for 24 hrs; type: functional, cell-based; details: dose 3-30 µM

Row | SMILES | Activity (HT-22 [1]) | further results
1 | CC(=O)OC[C@@]1(O)CCC[C@@H]2[C@@](C)(CCc3ccoc3)[C@H](C)C[C@H](O)[C@]21C | Non-Toxic | –
2 | C[C@@H]1C[C@@H]2OC(=O)[C@@H]3CCC[C@H]([C@@]1(C)CCc1ccoc1)[C@@]23C | Non-Toxic | –
3 | C=C1CCC[C@@H]2[C@@](C)(CCC3=C[C@H](OCC)O[C@@H]3OCC)[C@H](C)C[C@H](O)[C@@]12C | Non-Toxic | –
4 | C=C1CCC[C@@H]2[C@@](C)(CCc3ccoc3)[C@H](C)C[C@H](O)[C@@]12C | Non-Toxic | inhibition (HT-22 [2]): Active
5 | Oc1ccc(/C=C/c2cc(O)cc(O)c2)cc1 [RESVERATROL] | – | IC50 (BV-2 [3]): 32 µM
6 | C[C@@H]1C[C@H](O)[C@]2(C)[C@H](CCC[C@]2(O)CO)[C@@]1(C)CCc1ccoc1 | Non-Toxic | inhibition (HT-22 [2]): Active
7 | C=C1CCC[C@@H]2[C@@](C)(CCC3=C[C@@H](OCC)OC3=O)[C@H](C)C[C@H](O)[C@@]12C | Non-Toxic | –
8 | C=C1CCC[C@@H]2[C@@](C)(CCC3=C[C@H](OCC)OC3=O)[C@H](C)C[C@H](O)[C@@]12C | Non-Toxic | –
9 | CC(=O)N(O)CCCCCNC(=O)CCC(=O)N(O)CCCCCNC(=O)CCC(=O)N(O)CCCCCN | – | Activity [4]: Active
10 | C=C1CCC[C@@H]2[C@@](C)(CCC3=CC(=O)OC3C)[C@H](C)C[C@H](O)[C@@]12C (stereo partly specified) | Non-Toxic | –
11 | C[C@@H]1C[C@H](O)[C@]2(C)[C@H](CCC[C@@]2(O)CO)[C@@]1(C)CCc1ccoc1 | Non-Toxic | inhibition (HT-22 [2]): Active
12 | CCOC(=O)CC(=O)OC[C@@]1(O)CCC[C@@H]2[C@@](C)(CCc3ccoc3)[C@H](C)C[C@H](O)[C@]21C | Non-Toxic | –
13 | C=C1CCC[C@@H]2[C@@](C)(CC[C@]3(O)[C@@H](OCC)O[C@H](OCC)[C@H]3O)[C@H](C)C[C@H](O)[C@@]12C | Non-Toxic | –
14 | COC1C=C(CC[C@@]2(C)[C@H](C)C[C@H](O)[C@]3(COC(C)=O)[C@@H]2CCC[C@]32CO2)C(=O)O1 (stereo partly specified) | Non-Toxic | –
15 | C=C1CCC[C@@H]2[C@@](C)(CCC3=CC(O)OC3=O)[C@H](C)C[C@H](O)[C@@]12C (stereo partly specified) | Non-Toxic | –
16 | C=C1CCC[C@H]2[C@@]1(C)C(=O)C[C@@H](C)[C@]2(C)CCC1=CC(OC)OC1=O (stereo partly specified) | Non-Toxic | IC50 (BV-2 [3]): 9.7 µM; Activity (BV-2 [5]): Non-Toxic
17 | C=C1CCC[C@@H]2[C@@](C)(CCC3=CC(=O)OC3)[C@H](C)C[C@H](O)[C@@]12C | Non-Toxic | –
18 | C=C1CCC[C@@H]2[C@@](C)(CCC3=CC(OC)OC3=O)[C@H](C)C[C@H](O)[C@@]12C (stereo partly specified) | Non-Toxic | IC50 (BV-2 [3]): 41 µM
19 | C=C1CCC[C@@H]2[C@@](C)(CCC3=C[C@@H](OCC)O[C@@H]3OCC)[C@H](C)C[C@H](O)[C@@]12C | Non-Toxic | –
20 | C[C@@H]1C[C@H](C)C2=C(CO)CCC[C@@H]2[C@@]1(C)CCc1ccoc1 | Non-Toxic | inhibition (HT-22 [2]): Active
21 | CCO[C@@H]1C[C@@H]2C(C=O)=C(C)C[C@@H]2O1 | Non-Toxic | –
22 | C[C@@H]1C[C@H](O)[C@]2(C)[C@H](CCC[C@]23CO[C@@](C)(O)O3)[C@@]1(C)CCc1ccoc1 | Non-Toxic | EC50 (HT-22 [6]): 10 µM; inhibition (HT-22 [7]): inactive; Activity [4]: inactive; inhibition (HT-22 [8]): inactive; inhibition (HT-22 [9]): inactive; inhibition (HT-22 [10]): Dose-Dependent Effect; inhibition (HT-22 [11]): Dose-Dependent Effect; Activity [12]: inactive; inhibition (HT-22 [13]): Active; inhibition (HT-22 [14]): Active; Activity (HT-22 [15]): Dose-Dependent Effect
23 | C=C1CCC[C@@H]2[C@@](C)(CC/C(=C/CO)CO)[C@H](C)C[C@H](O)[C@@]12C | Non-Toxic | –

— ChEMBL document CHEMBL5325506, “Discovery of neo-Clerodane Diterpenoids from Ajuga campylantha as Neuroprotective Agents against Ferroptosis and Neuroinflammation” (J Nat Prod, 2023)
